Read-outs that look alike come from different tables or passages of the source.
How the values were obtained:
[1] = target: T1, WEE1 (Homo sapiens, UniProt P30291+Q96SW2); test: WEE1-ePL degradation assay (LentiX-WEE1-ePL-GSPT1-ND cells, InCELL Hunter luminescence, 4 h); type: cell-based; conditions: 293T-LentiX WEE1-ePL cells; for DC50: read-out: 293T-LentiX WEE1-ePL Degradation 4 hr (EC50)
T1 construct: C-terminal ePL-tagged (DiscoverX, Fremont, CA) full-length WEE1 expression construct; expressed in transfected cells; host or cells: LentiX-HEK293T (Invitrogen), lentiviral transduction; co-expressing GSPT1-GN (G576N, lacking the first 158 amino acids)
In short: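 First, compounds were pre-plated as 10-point, 3-fold dilutions (top 1 uM or 10 uM) with DMSO control; next, WEE1-ePL-expressing HEK293T cells were added and held 4 h at 37 °C; finally, InCELL Hunter reagent was applied for 30 min before luminescence reading. A 4PL fit gave EC50 and Ymin.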

[2] = system: MKN45 cells; test: MKN45 cell proliferation assay (Cell-Titer-Glo, 120 h); type: cell-based; conditions: for EC50: Homo sapiens, MKN-45, 120 h, Cell-Titer-Glo, read-out: MKN45 Cell Prolif. 120 hr (EC50); for MKN45 Cell Prolif. 120 hr (Ymin-Obs): minimal percent of DMSO control observed in the concentrations tested
In short: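 Growth inhibition was read as blank-corrected Cell-Titer-Glo luminescence expressed as percent DMSO control after 120 h at 37 C, 400 cells/well. Compounds tested in triplicate as 10-point half-log series from 1 or 10 uM, 0.1% DMSO; four-parameter fit gave EC50, and lowest observed percent control was reported as Ymin-obs.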

[3] = lower limit of the fit (0 = luciferase inhibitor, Ymax = DMSO control)
[4] = lower limit of the fit (Ymin=0 luciferase inhibitor, Ymax DMSO control)

SMILES | 293T-LentiX WEE1-ePL Degradation 4 hr (Ymin) [1, 3] | DC50 [1] | EC50 ([2]; growth inhibition) | 293T-LentiX WEE1-ePL Degradation 4 hr (Ymin) [1, 4] | EC50 [2] | MKN45 Cell Prolif. 120 hr (Ymin-Obs) [2]
O=C1CCC(N2Cc3cc(O[C@H]4CCN(Cc5ccc6nc(C78CCOCC7C8)ccc6c5)C4)ccc3C2=O)C(=O)N1 (stereo partly drawn) [3-(5-{[(3S)-1-[(2-{3-oxabicyclo[4.1.0]heptan-6-yl}quinolin-6-yl)methyl]pyrrolidin-3-yl]oxy}-1-oxo-2,3-dihydro-1H-isoindol-2-yl)piperidine-2,6-dione] | 33.33 | 3.1 nM | 2.16 nM | – | – | 9.735
[2H]c1ccc2cc(CN3CCC(Oc4ccc5c(c4)CN(C4CCC(=O)NC4=O)C5=O)C3)ccc2n1 [3-(1-oxo-5-{[(3S)-1-{[(2-^2H)quinolin-6-yl]methyl}pyrrolidin-3-yl]oxy}-2,3-dihydro-1H-isoindol-2-yl)piperidine-2,6-dione] | 29.5 | 4.09 nM | 26.9 nM | – | – | 9.14
O=C1CCC(N2Cc3cc(O[C@H]4CCN(Cc5cnn(-c6cccnc6)c5)C4)ccc3C2=O)C(=O)N1 (stereo partly drawn) [3-(1-oxo-5-{[(3S)-1-{[1-(pyridin-3-yl)-1H-pyrazol-4-yl]methyl}pyrrolidin-3-yl]oxy}-2,3-dihydro-1H-isoindol-2-yl)piperidine-2,6-dione] | 31.735 | – | 269 nM | – | – | 11.53
O=C1CCC(N2Cc3cc(O[C@H]4CCN(Cc5ccc6nc(N7[C@@H]8COC[C@H]7C8)ncc6c5)C4)ccc3C2=O)C(=O)N1 (stereo partly drawn) [3-(5-{[(3S)-1-({2-[(1R,5S)-3-oxa-6-azabicyclo[3.1.1]heptan-6-yl]quinazolin-6-yl}methyl)pyrrolidin-3-yl]oxy}-1-oxo-2,3-dihydro-1H-isoindol-2-yl)piperidine-2,6-dione] | 38 | 117 nM | 17 nM | – | – | 10.76
O=C1CCC(N2Cc3cc(O[C@H]4CCN(Cc5cc(-c6ccccc6)ccn5)C4)ccc3C2=O)C(=O)N1 (stereo partly drawn) [3-(1-oxo-5-{[(3S)-1-[(4-phenylpyridin-2-yl)methyl]pyrrolidin-3-yl]oxy}-2,3-dihydro-1H-isoindol-2-yl)piperidine-2,6-dione] | 34.5 | 5.3 nM | 16.7 nM | – | – | 8.59
COc1cncc(CN2CC[C@H](Oc3ccc4c(c3)CN(C3CCC(=O)NC3=O)C4=O)C2)c1C (stereo partly drawn) [3-(5-{[(3S)-1-[(5-methoxy-4-methylpyridin-3-yl)methyl]pyrrolidin-3-yl]oxy}-1-oxo-2,3-dihydro-1H-isoindol-2-yl)piperidine-2,6-dione] | 61 | 28.5 nM | 833 nM | – | – | 59.99
COC[C@H]1CCC[C@H](c2ccc3cc(CN4CC[C@H](Oc5ccc6c(c5)CN(C5CCC(=O)NC5=O)C6=O)C4)ccc3n2)C1 (stereo partly drawn) [3-(5-{[(3S)-1-({2-[(1S,3S)-3-(methoxymethyl)cyclohexyl]quinolin-6-yl}methyl)pyrrolidin-3-yl]oxy}-1-oxo-2,3-dihydro-1H-isoindol-2-yl)piperidine-2,6-dione] | – | 7.61 nM | – | 32.49 | 5.71 nM | 11.34

Now from value to compound, other results behind:

293T-LentiX WEE1-ePL Degradation 4 hr (Ymin) [1, 3] | DC50 [1] | EC50 ([2]; growth inhibition) | 293T-LentiX WEE1-ePL Degradation 4 hr (Ymin) [1, 4] | EC50 [2] | SMILES | MKN45 Cell Prolif. 120 hr (Ymin-Obs) [2]
100.5 | – | > 10000 nM | – | – | N#Cc1ccc2cc(CN3CC[C@H](Oc4cc(F)c5c(c4)CN(C4CCC(=O)NC4=O)C5=O)C3)ccc2n1 (stereo partly drawn) [6-{[(3S)-3-{[2-(2,6-dioxopiperidin-3-yl)-7-fluoro-1-oxo-2,3-dihydro-1H-isoindol-5-yl]oxy}pyrrolidin-1-yl]methyl}quinoline-2-carbonitrile] | 84.865
– | 1.77 nM | – | 24.69 | 1.34 nM | CC1(C)C[C@@H](c2ccc3cc(CN4CC[C@H](Oc5ccc6c(c5)CN([C@H]5CCC(=O)NC5=O)C6=O)C4)ccc3n2)CCO1 [(3S)-3-(5-{[(3S)-1-({2-[(4S)-2,2-dimethyloxan-4-yl]quinolin-6-yl}methyl)pyrrolidin-3-yl]oxy}-1-oxo-2,3-dihydro-1H-isoindol-2-yl)piperidine-2,6-dione] | 9.025
32.7 | 22.3 nM | 91.6 nM | – | – | N#Cc1ccc2cc(CN3C[C@@H](F)[C@H](Oc4ccc5c(c4)CN(C4CCC(=O)NC4=O)C5=O)C3)ccc2n1 (stereo partly drawn) [6-{[(3R,4R)-3-{[2-(2,6-dioxopiperidin-3-yl)-1-oxo-2,3-dihydro-1H-isoindol-5-yl]oxy}-4-fluoropyrrolidin-1-yl]methyl}quinoline-2-carbonitrile] | 37.36
33 | 3.79 nM | 11.2 nM | – | – | O=C1CCC(N2Cc3cc(O[C@H]4CCN(Cc5ccc6nc(C7COC7)ccc6c5)C4)ccc3C2=O)C(=O)N1 (stereo partly drawn) [3-(5-{[(3S)-1-{[2-(oxetan-3-yl)quinolin-6-yl]methyl}pyrrolidin-3-yl]oxy}-1-oxo-2,3-dihydro-1H-isoindol-2-yl)piperidine-2,6-dione] | 10.08
– | 12.1 nM | – | 45.2 | 33.8 nM | O=C1CC[C@H](N2Cc3cc(O[C@H]4CCN(Cc5ccc6nc(N7CCC7)ncc6c5)C4)ccc3C2=O)C(=O)N1 [(3S)-3-(5-{[(3S)-1-{[2-(azetidin-1-yl)quinazolin-6-yl]methyl}pyrrolidin-3-yl]oxy}-1-oxo-2,3-dihydro-1H-isoindol-2-yl)piperidine-2,6-dione] | 31.75
21.62 | 38.4 nM | 17.9 nM | – | – | O=C1CCC(N2Cc3cc(O[C@H]4CCN(Cc5ccc6nc(N7CCC(F)(F)CC7)ccc6c5)C4)ccc3C2=O)C(=O)N1 (stereo partly drawn) [3-(5-{[(3S)-1-{[2-(4,4-difluoropiperidin-1-yl)quinolin-6-yl]methyl}pyrrolidin-3-yl]oxy}-1-oxo-2,3-dihydro-1H-isoindol-2-yl)piperidine-2,6-dione] | 17.9
34.59 | 1.83 nM | 9.71 nM | – | – | O=C1CC[C@H](N2Cc3cc(O[C@H]4CCN(Cc5ccc6nc(N7CCOCC7)ccc6c5)C4)ccc3C2=O)C(=O)N1 [(3S)-3-(5-{[(3S)-1-{[2-(morpholin-4-yl)quinolin-6-yl]methyl}pyrrolidin-3-yl]oxy}-1-oxo-2,3-dihydro-1H-isoindol-2-yl)piperidine-2,6-dione] | 14.56
30.5 | 2.49 nM | 3.75 nM | – | – | COC1CCN(c2ccc3cc(CN4CC[C@H](Oc5ccc6c(c5)CN(C5CCC(=O)NC5=O)C6=O)C4)ccc3n2)CC1 (stereo partly drawn) [3-(5-{[(3S)-1-{[2-(4-methoxypiperidin-1-yl)quinolin-6-yl]methyl}pyrrolidin-3-yl]oxy}-1-oxo-2,3-dihydro-1H-isoindol-2-yl)piperidine-2,6-dione] | 9.39
– | 8.72 nM | – | 30.03 | 6.36 nM | O=C1CC[C@H](N2Cc3cc(O[C@@H]4CN(Cc5ccc6nc([C@@H]7CCOC7)ccc6c5)CC4(F)F)ccc3C2=O)C(=O)N1 [(3S)-3-(5-{[(3R)-4,4-difluoro-1-({2-[(3S)-oxolan-3-yl]quinolin-6-yl}methyl)pyrrolidin-3-yl]oxy}-1-oxo-2,3-dihydro-1H-isoindol-2-yl)piperidine-2,6-dione] | 8.017
